pEC50, pIC50: −log10 of the molar value. Like-named read-outs stand apart in the source and are kept apart here.
Experiments:
[1] = Cytotoxicity Determination (CCK-8, without addition of virus); format: cell-based; conditions: human, 50% cytotoxicity concentration (CC50)
Method: (§1) CPE reduction assays are performed as described by Sidwell and Huffman et al., Appl. Microbiol. (1971) 22(5):797-801 with slight modifications. HEp-2 cells (ATCC #, CCL-23) are seeded at a density of 1,500 cells/30 μl/well into the 384-well cell plate(s) (Corning #3701) one day prior to the assay. Compounds are added into 384-well cell plates by Labcyte POD 810 Plate Assembler system. Each of the test compounds is provided to duplicate wells of a 384-well cell plate at final concentrations starting from 100 μM or 1 μM using 1/3 stepwise dilutions for 9 points. Quick-thaw Respiratory Syncytial Virus (RSV) long strain (ATCC #VR-26) stock in a 37° C. water bath. Place on ice until ready to use. Viruses are diluted to the concentration of 100 TCID50/30 μL with medium and 30 μl diluted RSV are added into related wells of 384-well cell plates. For each plate, sixteen wells are set aside as uninfected, untreated cell controls (CC), and nine wells per test plate receive virus only as a control for virus replication (VC). The final DMSO concentration of all wells is 1%. Place the plates at 37° C., 5% CO2 for 5 days.
In order to determine the compound cytotoxicity, in parallel, each of the compounds is applied to duplicate wells in a 384-well cell plate at serial final concentrations starting from 100 μM using 1/2 stepwise dilutions for 7 points without addition of virus. Incubate the cells at 37° C., 5% CO2 for 5 days. Add 6 μL CCK-8 into each well and incubate in a CO2 incubator at 37° C. for 3-4 hours.

[2] = system: Respiratory Syncytial Virus (RSV) long strain; assay: microbe, parasite or virus in culture; format: cell-based; conditions: human respiratory syncytial virus, Tables A and B list compounds by EC50 band
Method: as §1
After 5 days incubation, observe the CPE of cells in all wells. […] Six μl of cell counting kit-8 reagent (CCK-8, Dojindo Molecular Technologies Inc., CK04-20) are added to each well, which allows colorimetric assays to determine the number of viable cells through the dehydrogenase activity detection. After 3-4 hour incubation, the absorbance of each well is measured with a spectrophotometric plate reader at 450 nm wavelength, using a 630 nm filter as background according to manufacturer's instruction.

recombinant RSV complex = recombinant RSV complex (Human respiratory syncytial virus A, UniProt P28887); assay: RSV Polymerase Inhibition Assay; format: biochemical
Sequence of recombinant RSV complex (P28887 whole entry): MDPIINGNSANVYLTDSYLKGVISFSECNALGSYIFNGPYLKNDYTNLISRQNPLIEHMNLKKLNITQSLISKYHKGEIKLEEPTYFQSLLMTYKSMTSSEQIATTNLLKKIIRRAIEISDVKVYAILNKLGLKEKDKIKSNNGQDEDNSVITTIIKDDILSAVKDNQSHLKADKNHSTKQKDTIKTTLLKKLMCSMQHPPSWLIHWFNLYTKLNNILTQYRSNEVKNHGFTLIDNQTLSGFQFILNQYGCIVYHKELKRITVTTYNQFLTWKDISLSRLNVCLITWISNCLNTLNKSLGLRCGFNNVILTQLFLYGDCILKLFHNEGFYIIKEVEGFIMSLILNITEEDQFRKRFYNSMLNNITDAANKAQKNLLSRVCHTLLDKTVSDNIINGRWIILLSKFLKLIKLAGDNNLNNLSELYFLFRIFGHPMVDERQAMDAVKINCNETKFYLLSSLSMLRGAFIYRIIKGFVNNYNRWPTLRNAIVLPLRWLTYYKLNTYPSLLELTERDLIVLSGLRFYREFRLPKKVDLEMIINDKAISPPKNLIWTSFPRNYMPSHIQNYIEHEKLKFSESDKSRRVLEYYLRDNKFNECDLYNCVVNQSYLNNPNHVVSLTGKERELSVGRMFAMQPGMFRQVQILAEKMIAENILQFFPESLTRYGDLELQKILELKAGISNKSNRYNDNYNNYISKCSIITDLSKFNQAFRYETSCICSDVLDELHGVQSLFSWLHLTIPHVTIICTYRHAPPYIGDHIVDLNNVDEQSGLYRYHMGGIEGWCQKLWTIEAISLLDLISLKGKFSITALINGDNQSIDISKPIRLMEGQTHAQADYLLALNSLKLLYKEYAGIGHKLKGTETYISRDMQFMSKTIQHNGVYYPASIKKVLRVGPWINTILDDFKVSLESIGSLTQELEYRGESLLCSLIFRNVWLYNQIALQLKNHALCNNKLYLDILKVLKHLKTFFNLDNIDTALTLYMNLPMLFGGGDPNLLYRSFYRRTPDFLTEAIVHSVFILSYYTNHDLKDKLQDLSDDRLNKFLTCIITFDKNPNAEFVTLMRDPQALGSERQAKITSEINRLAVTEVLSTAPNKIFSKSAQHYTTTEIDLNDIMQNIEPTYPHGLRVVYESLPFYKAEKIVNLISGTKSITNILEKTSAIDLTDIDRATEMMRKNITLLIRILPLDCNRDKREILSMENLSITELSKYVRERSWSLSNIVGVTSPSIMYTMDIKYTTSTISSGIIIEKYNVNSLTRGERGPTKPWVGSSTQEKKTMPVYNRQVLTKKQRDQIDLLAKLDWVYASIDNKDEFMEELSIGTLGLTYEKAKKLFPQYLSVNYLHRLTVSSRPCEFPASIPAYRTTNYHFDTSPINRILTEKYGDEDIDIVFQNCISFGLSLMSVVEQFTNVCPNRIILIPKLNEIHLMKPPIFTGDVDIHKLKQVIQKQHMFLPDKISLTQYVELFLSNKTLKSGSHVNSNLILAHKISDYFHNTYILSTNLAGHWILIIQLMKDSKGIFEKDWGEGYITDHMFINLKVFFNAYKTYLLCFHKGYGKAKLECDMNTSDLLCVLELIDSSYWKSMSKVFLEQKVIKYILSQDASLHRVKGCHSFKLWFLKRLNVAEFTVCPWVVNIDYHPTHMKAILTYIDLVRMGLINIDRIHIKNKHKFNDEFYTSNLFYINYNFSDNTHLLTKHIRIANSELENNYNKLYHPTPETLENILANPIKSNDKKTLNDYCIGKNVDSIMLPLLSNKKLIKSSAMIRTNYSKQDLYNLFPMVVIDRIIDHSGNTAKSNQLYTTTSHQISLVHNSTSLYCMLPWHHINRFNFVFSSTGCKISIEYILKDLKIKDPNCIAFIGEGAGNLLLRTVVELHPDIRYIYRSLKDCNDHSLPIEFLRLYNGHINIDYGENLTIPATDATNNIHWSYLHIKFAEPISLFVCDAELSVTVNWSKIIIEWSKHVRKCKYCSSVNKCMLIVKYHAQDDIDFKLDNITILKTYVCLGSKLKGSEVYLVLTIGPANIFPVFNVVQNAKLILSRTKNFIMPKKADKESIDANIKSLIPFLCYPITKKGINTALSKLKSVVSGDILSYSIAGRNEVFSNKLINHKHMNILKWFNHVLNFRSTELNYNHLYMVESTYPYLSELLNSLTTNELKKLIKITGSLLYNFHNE
Sequence of recombinant RSV complex (P03421 whole entry, further chain): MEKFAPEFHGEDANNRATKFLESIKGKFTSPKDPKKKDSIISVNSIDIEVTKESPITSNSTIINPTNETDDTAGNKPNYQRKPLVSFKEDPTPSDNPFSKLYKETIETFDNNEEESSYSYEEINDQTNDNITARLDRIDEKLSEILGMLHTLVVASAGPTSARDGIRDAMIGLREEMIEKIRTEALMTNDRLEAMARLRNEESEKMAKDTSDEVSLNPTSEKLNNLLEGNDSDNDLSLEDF
Method: Standard RSV polymerase assays were conducted in the presence of 10 nM recombinant RSV complex in a reaction buffer containing Tris-HCl pH7.5, 6 mM MgCl2, and other additives and substrates including RNA oligonucleotides and radionucleotides. Standard reactions were incubated in 96-well plate format for 2 h at 30° C., in the presence of increasing concentration of inhibitor. The reaction was stopped with 90 μL of 0.1M EDTA, and the reaction product was transferred to a “reading” 96-well plate. After washing of the plate, radiolabeled RNA products were detected according to standard procedures with a Trilux Topcount scintillation counter.

[3] = HEp-2, 120 h, read-out: 50% effective concentration (EC50), HEp-2 cells infected with RSV long strain, 5 days, CCK-8 readout
[4] = 120 h, read-out: 50% effective concentration (EC50), HEp-2 cells infected with RSV long strain, 5 days, CCK-8 readout

Compound	CC50 at 5 days [1] [µM]	pEC50 [2, 3]	pIC50 (recombinant RSV complex)	pEC50 [2, 4]
COc1cc(C(=O)NCC(O)(c2ccc(OC)c(-c3ccc(F)c(Cl)c3)n2)C(F)(F)F)ccc1OCC(N)=O (single isomer, unassigned) [Compound 238]	10 to 100	> 6.00	> 6.00	
COc1cc(C(=O)NCC(C)(O)c2cc3c(c(-c4ccc(F)c(Cl)c4)n2)NCC3)ccc1OCCF (single isomer, unassigned) [Compound 294]	> 100	> 6.00	> 5.00	
COc1cc(C(=O)NCC(C)(O)c2cc3cc[nH]c3c(-c3ccc(F)c(Cl)c3)n2)ccc1OCCF (single isomer, unassigned) [Compound 296]	10 to 100	> 6.00	> 5.00	
COc1cc(-c2csc3c(F)cccc23)nc(C(O)CNC(=O)c2ccc(OC)c(OC)c2)c1 (stereo not shown) [Compound 100]	10 to 100			4.30 to 6.00
COc1cc(C(=O)NCC(C)(O)c2cc(CO)cc(-c3ccc(F)c(Cl)c3)n2)ccc1OCC1CC1 (stereo not shown) [Compound 101]	10 to 100	> 6.00	> 6.00	
CCCn1nc(C(O)CNC(=O)c2ccc(OC)c(OC)c2)nc1-c1csc2c(F)cccc12 (stereo not shown) [Compound 107]	10 to 100			4.30 to 6.00
COc1ccc(C(=O)NCC(O)c2csc(-c3csc4c(F)cccc34)n2)cc1OC (stereo not shown) [Compound 108]	> 100			4.30 to 6.00
COc1cc(C(=O)NCC(C)(O)c2ncc(OC)c(-c3ccc(F)c(Cl)c3)n2)ccc1OCCO (stereo not shown) [Compound 109]	> 100	4.30 to 6.00	> 5.00	
COc1ccc(C(=O)NCC(O)c2cc(C)cc(-c3csc4c(F)cccc34)n2)cc1OC (stereo not shown) [Compound 111]	10 to 100			4.30 to 6.00
COc1cc(C(O)CNC(=O)c2ccc(OC)c(OC)c2)nc(-c2csc3c(F)cccc23)n1 (stereo not shown) [Compound 112]	10 to 100			4.30 to 6.00
COc1ccc(C(=O)NCC(O)c2nc(-c3csc4c(F)cccc34)n3ccccc23)cc1OC (stereo not shown) [Compound 113]	10 to 100			4.30 to 6.00
COCc1ccc(C(=O)NCC(C)(O)c2ccc(OC)c(-c3ccc(F)c(Cl)c3)n2)cc1OC (stereo not shown) [Compound 114]	10 to 100	4.30 to 6.00	> 5.00	
CNC(=O)COc1ccc(C(=O)NCC(C)(O)c2cccc(-c3ccc(F)c(Cl)c3)n2)cc1OC (stereo not shown) [Compound 121]	> 100			4.30 to 6.00
COc1cc(-c2csc3c(F)cccc23)nc(C(O)CNC(=O)c2ccc(OC)c(OC)c2)n1 (stereo not shown) [Compound 131]	10 to 100			4.30 to 6.00
COc1ccc(C(=O)NCC(O)c2nc(-c3csc4c(F)cccc34)c[nH]2)cc1OC (stereo not shown) [Compound 132]	10 to 100			4.30 to 6.00
COc1ccc(C(=O)NCC(O)c2nc(-c3csc4c(F)cccc34)cn2C)cc1OC (stereo not shown) [Compound 133]	10 to 100			4.30 to 6.00
COc1ccc(C(=O)NCC(O)c2nc(-c3csc4c(F)cccc34)cs2)cc1OC (stereo not shown) [Compound 134]	10 to 100			4.30 to 6.00
COc1cc(C(=O)NCC(=O)c2cc3c(c(-c4ccc(F)c(Cl)c4)n2)OCC3)ccc1OCCF [Compound 135]	> 100	> 6.00	> 4.00	
COc1ccc(C(=O)NCC(C)(O)c2cccc(-c3csc4c(F)cccc34)n2)cc1OC (stereo not shown) [Compound 142]	10 to 100	> 6.00	> 6.00	
COc1ccc(C(=O)NCC(OC)c2cccc(-c3csc4c(F)cccc34)n2)cc1OC (stereo not shown) [Compound 148]	10 to 100	4.30 to 6.00	> 5.00	
COc1cc(C(=O)NCC(F)c2ccc(OC)c(-c3ccc(F)c(Cl)c3)n2)ccc1OCCO (stereo not shown) [Compound 149]	10 to 100	4.30 to 6.00	> 5.00	
COc1cc(C(=O)NCC(F)(F)c2ccc(OC)c(-c3ccc(F)c(Cl)c3)n2)ccc1OCCO [Compound 150]	> 100		> 5.00	4.30 to 6.00

Compound	CC50 at 5 days [1] [µM]	pEC50 [2, 3]	pIC50 (recombinant RSV complex)	pEC50 [2, 4]
COc1cc(C(=O)NCC(O)c2ccc3c(n2)-c2c(sc4c(F)cccc24)CO3)ccc1OCCO (stereo not shown) [Compound 161]	10 to 100	4.30 to 6.00	> 4.00	
COc1cc(C(=O)NCC(O)c2cccc(-c3csc4c(F)cccc34)n2)ccc1OCCO (stereo not shown) [Compound 165]	10 to 100	4.30 to 6.00	> 5.00	
COc1cc(C(=O)NCC(C)(O)c2ccc(OC)c(-c3ccc(F)c(Br)c3)n2)ccc1OCCO (stereo not shown) [Compound 167]	10 to 100	> 6.00	> 6.00	
COc1ccc(C(=O)NCC(C)(O)c2ccc(OC)c(-c3ccc(F)c(Cl)c3)n2)cc1 (stereo not shown) [Compound 174]	10 to 100	4.30 to 6.00	> 5.00	
COc1ccc(C(C)(O)CNC(=O)c2ccc(-c3nc(C)no3)cc2)nc1-c1ccc(F)c(Cl)c1 (stereo not shown) [Compound 175]	> 100	4.30 to 6.00	> 5.00	
CNCC(O)(CNC(=O)c1ccc(OCCO)c(OC)c1)c1ccc(OC)c(-c2ccc(F)c(Cl)c2)n1 (stereo not shown) [Compound 177]	> 100	4.30 to 6.00	> 5.00	
COc1cc(C(=O)NCC(O)(CN(C)C)c2ccc(OC)c(-c3ccc(F)c(Cl)c3)n2)ccc1OCCO (stereo not shown) [Compound 178]	> 100	4.30 to 6.00	> 4.00	
COc1cc(C(=O)NCC(O)(CN)c2ccc(OC)c(-c3ccc(F)c(Cl)c3)n2)ccc1OCCO (stereo not shown) [Compound 179]	> 100	4.30 to 6.00	> 6.00	
COc1cc(C(=O)NCC(O)(CN2CCOCC2)c2ccc(OC)c(-c3ccc(F)c(Cl)c3)n2)ccc1OCCO (stereo not shown) [Compound 181]	> 100	> 6.00	> 6.00	
COc1cc(C(=O)NCC(O)(CN2CCNC(=O)C2)c2ccc(OC)c(-c3ccc(F)c(Cl)c3)n2)ccc1OCCO (stereo not shown) [Compound 182]	> 100	> 6.00	> 6.00	
COc1cc(C(=O)NCC(O)(CN2CCCC2)c2ccc(OC)c(-c3ccc(F)c(Cl)c3)n2)ccc1OCCO (stereo not shown) [Compound 187]	> 100	4.30 to 6.00	> 5.00	
COc1cc(C(=O)NCC(O)(CN2CCNCC2)c2ccc(OC)c(-c3ccc(F)c(Cl)c3)n2)ccc1OCCO (stereo not shown) [Compound 190]	> 100		> 6.00	4.30 to 6.00
COc1cc(C(=O)NCC(O)(CN2CCNCC2=O)c2ccc(OC)c(-c3ccc(F)c(Cl)c3)n2)ccc1OCCO (stereo not shown) [Compound 196]	> 100	4.30 to 6.00	> 6.00	
COc1cc(C(=O)NCC(O)(c2cn(C)nn2)c2ccc(OC)c(-c3ccc(F)c(Cl)c3)n2)ccc1OCCO (stereo not shown) [Compound 199]	> 100	> 6.00	> 6.00	
CC1(C)COc2c1cc(C(O)(CNC(=O)c1cc(O)c3ncccc3c1)C(F)(F)F)nc2-c1ccc(F)c(Cl)c1 (stereo not shown) [Compound 207]	10 to 100	4.30 to 6.00	> 6.00	
COc1cc(C(=O)NCC(=O)c2cc3c(c(-c4ccc(F)c(Cl)c4)n2)OCC3(C)C)cc2c(C)ccnc12 [Compound 229]	> 100			4.30 to 6.00
COc1ccc(C(=O)NCC(O)(c2ccc(OC)c(-c3ccc(F)c(Cl)c3)n2)C(F)(F)F)cc1OC (stereo not shown) [Compound 337]	10 to 100	4.30 to 6.00		
COc1cc(C(=O)NCC(O)(c2ccc(OC)c(-c3ccc(F)c(Cl)c3)n2)C(F)(F)F)ccc1OC1CCCNC1=O (stereo not shown) [Compound 340]	10 to 100			> 6.00
COc1cc(C(=O)NCC(O)(c2ccc(OC)c(-c3ccc(F)c(Cl)c3)n2)C2CC2)ccc1OCC(N)=O (stereo not shown) [Compound 429]	10 to 100			> 6.00
COc1cc(C(=O)NCC(O)(c2ccc(OC)c(-c3ccc(F)c(Cl)c3)n2)C2CC2)ccc1CCO (stereo not shown) [Compound 433]	10 to 100			> 6.00
COc1cc(C(=O)NCC(O)(c2cc(C(C)(C)N)cc(-c3ccc(C#N)cc3)n2)C(F)(F)F)ccc1OCC(N)=O (stereo not shown) [Compound 625]	> 100		> 6.00	

Reference: patent US11021444B2, “Antiviral compounds” (priority 2013, dated 2021)
